ChEMBL document CHEMBL1201861, “Genomics of Drug Sensitity in Cancer screening data, Wellcome Trust Sanger Institute”

Legend:
Test in all cases: cells
SK-MEL3 = assay type: functional, cell-based, Homo sapiens, SK-MEL-3; settings: Homo sapiens, SK-MEL3;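 note: growth inhibition of human SK-MEL-3 cells, read out with a cell viability assay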
Description: SANGER: Inhibition of human SK-MEL-3 cell growth in a cell viability assay.

SK-HEP1 = assay type: functional, cell-based, Homo sapiens, SK-HEP-1; settings: Homo sapiens, SK-HEP1;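 note: cell viability readout used to quantify reduction in proliferation of human SK-HEP-1 cells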
Description: SANGER: Inhibition of human SK-HEP-1 cell growth in a cell viability assay.

RERF-LC-MS = assay type: functional, cell-based, Homo sapiens; settings: Homo sapiens, RERF-LC-MS;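 note: growth inhibition of human RERF-LC-MS cells, read out by a cell viability assay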
Description: SANGER: Inhibition of human RERF-LC-MS cell growth in a cell viability assay.

NCI-H596 = assay type: functional, cell-based, Homo sapiens; settings: Homo sapiens, NCI-H596;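 note: growth inhibition of NCI-H596 cells, read out with a cell viability assay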
Description: SANGER: Inhibition of human NCI-H596 cell growth in a cell viability assay.

BT-474 = assay type: functional, cell-based, Homo sapiens; settings: Homo sapiens, BT-474
Description: SANGER: Inhibition of human BT-474 cell growth in a cell viability assay.

QIMR-WIL = assay type: functional, cell-based; settings: Homo sapiens;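 note: growth inhibition of QIMR-WIL cells, read out with a cell viability assay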
Description: SANGER: Inhibition of human QIMR-WIL cell growth in a cell viability assay.

Mo = assay type: functional, cell-based; settings: Homo sapiens
Description: SANGER: Inhibition of human Mo-T cell growth in a cell viability assay.

PC-14 = assay type: functional, cell-based, Homo sapiens; settings: Homo sapiens, PC-14;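 note: cell viability assay measuring inhibition of PC-14 cell growth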
Description: SANGER: Inhibition of human PC-14 cell growth in a cell viability assay.

8305C = assay type: functional, cell-based, Homo sapiens; settings: Homo sapiens, 8305C
Description: SANGER: Inhibition of human 8305C cell growth in a cell viability assay.

SW1088 = assay type: functional, cell-based, Homo sapiens; settings: Homo sapiens, SW1088;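 note: growth inhibition of human SW1088 cells, read out by a cell viability assay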
Description: SANGER: Inhibition of human SW1088 cell growth in a cell viability assay.

Calu-3 = assay type: functional, cell-based, Homo sapiens; settings: Homo sapiens, Calu-3;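 note: growth inhibition of human Calu-3 cells, determined with a cell viability assay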
Description: SANGER: Inhibition of human Calu-3 cell growth in a cell viability assay.

A-431 = assay type: functional, cell-based, Homo sapiens; settings: Homo sapiens, A-431;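 note: growth inhibition of A-431 cells, determined with a cell viability read-out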
Description: SANGER: Inhibition of human A431 cell growth in a cell viability assay.

NCI-H2052 = assay type: functional, cell-based, Homo sapiens; settings: Homo sapiens, NCI-H2052;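 note: growth inhibition of NCI-H2052 cells, read out with a cell viability assay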
Description: SANGER: Inhibition of human NCI-H2052 cell growth in a cell viability assay.

TCC-SUP = assay type: functional, cell-based, Homo sapiens; settings: Homo sapiens, TCC-SUP;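 note: growth inhibition of TCC-SUP cells, read out with a cell viability assay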
Description: SANGER: Inhibition of human TCCSUP cell growth in a cell viability assay.

NCI-H226 = assay type: functional, cell-based, Homo sapiens; settings: Homo sapiens, NCI-H226;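 note: cell viability read-out used to gauge growth inhibition of the cells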
Description: SANGER: Inhibition of human NCI-H226 cell growth in a cell viability assay.

COLO-679 = assay type: functional, cell-based, Homo sapiens; settings: Homo sapiens, COLO-679
Description: SANGER: Inhibition of human COLO-679 cell growth in a cell viability assay.

EW-1 = assay type: functional, cell-based, Homo sapiens; settings: Homo sapiens, EW-1;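 note: growth inhibition of the human EW-1 cell line, read out by a cell viability assay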
Description: SANGER: Inhibition of human EW-1 cell growth in a cell viability assay.

TGBC24TKB = assay type: functional, cell-based, Homo sapiens; settings: Homo sapiens, TGBC24TKB;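 note: growth inhibition of human TGBC24TKB cells, read out with a cell viability assay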
Description: SANGER: Inhibition of human TGBC24TKB cell growth in a cell viability assay.

HT-1376 = assay type: functional, cell-based, Homo sapiens; settings: Homo sapiens, HT-1376
Description: SANGER: Inhibition of human HT-1376 cell growth in a cell viability assay.

EW-24 = assay type: functional, cell-based; settings: Homo sapiens;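 note: human EW-24 cancer cell line, growth inhibition read out via a cell viability assay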
Description: SANGER: Inhibition of human EW-24 cell growth in a cell viability assay.

COR-L105 = assay type: functional, cell-based, Homo sapiens; settings: Homo sapiens, COR-L105;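 note: cell growth inhibition determined with a viability assay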
Description: SANGER: Inhibition of human COR-L105 cell growth in a cell viability assay.

SN12C = assay type: functional, cell-based, Homo sapiens; settings: Homo sapiens, SN12C;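 note: growth inhibition of human SN12C cells, measured by a cell viability assay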
Description: SANGER: Inhibition of human SN12C cell growth in a cell viability assay.

MDA-MB-361 = assay type: functional, cell-based, Homo sapiens; settings: Homo sapiens, MDA-MB-361
HLE = assay type: functional, cell-based, Homo sapiens; settings: Homo sapiens, HLE;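 note: growth inhibition of human HLE cells, read out by a cell viability assay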
Description: SANGER: Inhibition of human HLE cell growth in a cell viability assay.

NCI-H2030 = assay type: functional, cell-based, Homo sapiens; settings: Homo sapiens, NCI-H2030;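 note: growth inhibition of human NCI-H2030 cells, read out by a cell viability assay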
Description: SANGER: Inhibition of human NCI-H2030 cell growth in a cell viability assay.

SW1417 = assay type: functional, cell-based, Homo sapiens; settings: Homo sapiens, SW1417;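 note: growth inhibition of human SW1417 cells, read out with a cell viability assay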
Description: SANGER: Inhibition of human SW1417 cell growth in a cell viability assay.

PANC-03-27 = assay type: functional, cell-based, Homo sapiens; settings: Homo sapiens, PANC-03-27
Description: SANGER: Inhibition of human PANC-03-27 cell growth in a cell viability assay.

D-392MG = assay type: functional, cell-based, Homo sapiens; settings: Homo sapiens, D-392MG
BEN = assay type: functional, cell-based, Homo sapiens; settings: Homo sapiens, BEN;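 note: growth inhibition of the BEN cell line, read out with a cell viability assay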
Description: SANGER: Inhibition of human BEN cell growth in a cell viability assay.

CAMA-1 = assay type: functional, cell-based, Homo sapiens; settings: Homo sapiens, CAMA-1;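 note: growth inhibition of CAMA-1 cells, read out with a cell viability assay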
Description: SANGER: Inhibition of human CAMA-1 cell growth in a cell viability assay.

LU-99A = assay type: functional, cell-based, Homo sapiens; settings: Homo sapiens, LU-99A;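 note: growth inhibition of LU-99A cells, read out with a cell viability assay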
Description: SANGER: Inhibition of human LU-99A cell growth in a cell viability assay.

C3A = assay type: functional, cell-based, Homo sapiens; settings: Homo sapiens, C3A;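 note: growth inhibition of C3A human cells, quantified with a cell viability readout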
Description: SANGER: Inhibition of human C3A cell growth in a cell viability assay.

LN-405 = assay type: functional, cell-based, Homo sapiens; settings: Homo sapiens, LN-405
Description: SANGER: Inhibition of human LN-405 cell growth in a cell viability assay.

DK-MG = assay type: functional, cell-based, Homo sapiens; settings: Homo sapiens, DK-MG;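 note: growth inhibition of DK-MG cells, read out with a cell viability assay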
Description: SANGER: Inhibition of human DK-MG cell growth in a cell viability assay.

CAL-27 = assay type: functional, cell-based, Homo sapiens; settings: Homo sapiens, CAL-27;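 note: Viability-based readout, IC50 reflecting inhibition of CAL-27 cell growth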
Description: SANGER: Inhibition of human CAL-27 cell growth in a cell viability assay.

DMS-79 = assay type: functional, cell-based; settings: Homo sapiens;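 note: growth inhibition measured with a cell viability assay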
Description: SANGER: Inhibition of human DMS-79 cell growth in a cell viability assay.

no-10 = assay type: functional, cell-based, Homo sapiens; settings: Homo sapiens;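 note: growth inhibition of no-10 cells, read out with a cell viability assay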
Description: SANGER: Inhibition of human no-10 cell growth in a cell viability assay.

SNB-75 = assay type: functional, cell-based, Homo sapiens; settings: Homo sapiens, SNB-75;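 note: cell viability assay measuring growth inhibition of human SNB-75 cells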
Description: SANGER: Inhibition of human SNB75 cell growth in a cell viability assay.

A673 = assay type: functional, cell-based, Homo sapiens; settings: Homo sapiens, A673;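 note: growth inhibition of human A673 cells, read out through a cell viability assay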
Description: SANGER: Inhibition of human A673 cell growth in a cell viability assay.

A498 = assay type: functional, cell-based, Homo sapiens; settings: Homo sapiens, A498;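 note: growth inhibition of human A498 cells, read out with a cell viability assay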
Description: SANGER: Inhibition of human A498 cell growth in a cell viability assay.

EKVX = assay type: functional, cell-based, Homo sapiens; settings: Homo sapiens, EKVX;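 note: growth inhibition of human EKVX cells, read out with a cell viability assay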
Description: SANGER: Inhibition of human EKVX cell growth in a cell viability assay.

SW13 = assay type: functional, cell-based, Homo sapiens; settings: Homo sapiens, SW13;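 note: IC50 is inhibition of SW13 cell growth, read out with a cell viability assay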
Description: SANGER: Inhibition of human SW13 cell growth in a cell viability assay.

EC-GI-10 = assay type: functional, cell-based, Homo sapiens; settings: Homo sapiens, EC-GI-10
Description: SANGER: Inhibition of human EC-GI-10 cell growth in a cell viability assay.

Hs-578T = assay type: functional, cell-based, Homo sapiens; settings: Homo sapiens, Hs-578T
Description: SANGER: Inhibition of human Hs-578-T cell growth in a cell viability assay.

MDA-MB-415 = assay type: functional, cell-based; settings: Homo sapiens
C-33-A = assay type: functional, cell-based, Homo sapiens; settings: Homo sapiens, C-33-A;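 note: cell viability assay measuring growth inhibition of C-33-A cells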
Description: SANGER: Inhibition of human C-33-A cell growth in a cell viability assay.

HSC-3 = assay type: functional, cell-based, Homo sapiens; settings: Homo sapiens, HSC-3
Description: SANGER: Inhibition of human HSC-3 cell growth in a cell viability assay.

CAL-54 = assay type: functional, cell-based, Homo sapiens; settings: Homo sapiens, CAL-54;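 note: growth inhibition of CAL-54 cells, read out by a viability measurement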
Description: SANGER: Inhibition of human CAL-54 cell growth in a cell viability assay.

MSTO-211H = assay type: functional, cell-based, Homo sapiens; settings: Homo sapiens, MSTO-211H
Description: SANGER: Inhibition of human MSTO-211H cell growth in a cell viability assay.

D-336MG = assay type: functional, cell-based, Homo sapiens; settings: Homo sapiens, D-336MG
Description: SANGER: Inhibition of human D-336MG cell growth in a cell viability assay.

C[C@]1(O)C[C@@H](c2nc(-c3ccc4ccc(-c5ccccc5)nc4c3)c3c(N)nccn32)C1 [LINSITINIB]
IC50 (SK-MEL3): 1.49 µM | IC50 (SK-HEP1): > 2.56 µM | IC50 (RERF-LC-MS): > 2.56 µM | IC50 (NCI-H596): > 2.56 µM | IC50 (BT-474): > 2.56 µM | IC50 (QIMR-WIL): > 2.56 µM | IC50 (Mo): > 2.56 µM | IC50 (PC-14): > 2.56 µM | IC50 (8305C): > 2.56 µM | IC50 (SW1088): > 2.56 µM | IC50 (Calu-3): > 2.56 µM | IC50 (A-431): > 2.56 µM | IC50 (NCI-H2052): > 2.56 µM | IC50 (TCC-SUP): > 2.56 µM | IC50 (NCI-H226): > 2.56 µM | IC50 (COLO-679): > 2.56 µM | IC50 (EW-1): 0.0858 µM | IC50 (TGBC24TKB): 1.5 µM | IC50 (HT-1376): > 2.56 µM | IC50 (EW-24): > 2.56 µM | IC50 (COR-L105): > 2.56 µM | IC50 (SN12C): > 2.56 µM | IC50 (MDA-MB-361): > 2.56 µM | IC50 (HLE): > 2.56 µM | IC50 (NCI-H2030): > 2.56 µM | IC50 (SW1417): > 2.56 µM | IC50 (PANC-03-27): > 2.56 µM | IC50 (D-392MG): > 2.56 µM | IC50 (BEN): > 2.56 µM | IC50 (CAMA-1): > 2.56 µM | IC50 (LU-99A): > 2.56 µM | IC50 (C3A): > 2.56 µM | IC50 (LN-405): > 2.56 µM | IC50 (DK-MG): > 2.56 µM | IC50 (CAL-27): > 2.56 µM | IC50 (DMS-79): > 2.56 µM | IC50 (no-10): > 2.56 µM | IC50 (SNB-75): > 2.56 µM | IC50 (A673): > 2.56 µM | IC50 (A498): > 2.56 µM | IC50 (EKVX): 1.35 µM | IC50 (SW13): > 2.56 µM | IC50 (EC-GI-10): > 2.56 µM | IC50 (Hs-578T): > 2.56 µM | IC50 (MDA-MB-415): > 2.56 µM | IC50 (C-33-A): > 2.56 µM | IC50 (HSC-3): > 2.56 µM | IC50 (CAL-54): > 2.56 µM | IC50 (MSTO-211H): > 2.56 µM

COc1ccc(C2=N[C@@H](c3ccc(Cl)cc3)[C@@H](c3ccc(Cl)cc3)N2C(=O)N2CCNC(=O)C2)c(OC(C)C)c1 [NUTLIN-3]
IC50 (SK-MEL3): > 8 µM | IC50 (SK-HEP1): 3.74 µM | IC50 (RERF-LC-MS): > 8 µM | IC50 (NCI-H596): > 8 µM | IC50 (BT-474): > 8 µM | IC50 (D-336MG): > 8 µM | IC50 (QIMR-WIL): 1.61 µM | IC50 (Mo): > 8 µM | IC50 (PC-14): > 8 µM | IC50 (8305C): > 8 µM | IC50 (SW1088): > 8 µM | IC50 (Calu-3): > 8 µM | IC50 (A-431): > 8 µM | IC50 (NCI-H2052): > 8 µM | IC50 (TCC-SUP): > 8 µM | IC50 (NCI-H226): > 8 µM | IC50 (COLO-679): > 8 µM | IC50 (EW-1): > 8 µM | IC50 (TGBC24TKB): > 8 µM | IC50 (HT-1376): > 8 µM | IC50 (COR-L105): > 8 µM | IC50 (SN12C): > 8 µM | IC50 (MDA-MB-361): > 8 µM | IC50 (HLE): > 8 µM | IC50 (NCI-H2030): > 8 µM | IC50 (SW1417): > 8 µM | IC50 (PANC-03-27): > 8 µM | IC50 (D-392MG): > 8 µM | IC50 (BEN): > 8 µM | IC50 (CAMA-1): > 8 µM | IC50 (LU-99A): > 8 µM | IC50 (C3A): > 8 µM | IC50 (LN-405): > 8 µM | IC50 (DK-MG): 2.62 µM | IC50 (CAL-27): > 8 µM | IC50 (no-10): > 8 µM | IC50 (SNB-75): > 8 µM | IC50 (A673): > 8 µM | IC50 (A498): > 8 µM | IC50 (EKVX): > 8 µM | IC50 (SW13): > 8 µM | IC50 (Hs-578T): > 8 µM | IC50 (MDA-MB-415): > 8 µM | IC50 (C-33-A): > 8 µM | IC50 (HSC-3): > 8 µM | IC50 (CAL-54): 4.53 µM | IC50 (MSTO-211H): 2.57 µM

C=CCNC1=C2C[C@@H](C)C[C@H](OC)[C@H](O)[C@@H](C)/C=C(\C)[C@H](OC(N)=O)[C@@H](OC)/C=C\C=C(/C)C(=O)NC(=CC1=O)C2=O [TANESPIMYCIN]
IC50 (SK-MEL3): 0.815 µM | IC50 (SK-HEP1): > 1 µM | IC50 (RERF-LC-MS): 0.746 µM | IC50 (NCI-H596): > 1 µM | IC50 (BT-474): 0.045 µM | IC50 (D-336MG): 0.0331 µM | IC50 (QIMR-WIL): 0.851 µM | IC50 (Mo): > 1 µM | IC50 (PC-14): 0.132 µM | IC50 (8305C): 0.725 µM | IC50 (SW1088): 0.164 µM | IC50 (Calu-3): > 1 µM | IC50 (A-431): 0.0821 µM | IC50 (NCI-H2052): > 1 µM | IC50 (TCC-SUP): 0.0596 µM | IC50 (NCI-H226): > 1 µM | IC50 (COLO-679): 0.112 µM | IC50 (EW-1): > 1 µM | IC50 (TGBC24TKB): > 1 µM | IC50 (HT-1376): 0.169 µM | IC50 (COR-L105): > 1 µM | IC50 (SN12C): 0.101 µM | IC50 (MDA-MB-361): 0.015 µM | IC50 (HLE): > 1 µM | IC50 (NCI-H2030): 0.0541 µM | IC50 (SW1417): > 1 µM | IC50 (PANC-03-27): 0.103 µM | IC50 (D-392MG): 0.894 µM | IC50 (BEN): > 1 µM | IC50 (CAMA-1): 0.129 µM | IC50 (LU-99A): 0.0624 µM | IC50 (C3A): 0.454 µM | IC50 (LN-405): 0.417 µM | IC50 (DK-MG): 0.372 µM | IC50 (CAL-27): 0.19 µM | IC50 (no-10): > 1 µM | IC50 (SNB-75): 0.122 µM | IC50 (A673): > 1 µM | IC50 (A498): 0.102 µM | IC50 (EKVX): > 1 µM | IC50 (SW13): > 1 µM | IC50 (Hs-578T): 0.0721 µM | IC50 (MDA-MB-415): 0.708 µM | IC50 (C-33-A): > 1 µM | IC50 (HSC-3): 0.00929 µM | IC50 (CAL-54): > 1 µM | IC50 (MSTO-211H): 0.558 µM
